From patent publication US20220143148A1, “COMPOSITIONS AND METHODS FOR MODULATING CGRP SIGNALING TO REGULATE INTESTINAL INNATE LYMPHOID CELLS” (The Broad Institute, Inc., priority 2019, published 2022)

How the values were obtained:
intestinal KLRG1+ ILC2s [1] = assay: Bulk ATAC-seq of intestinal KLRG1+ ILC2s stimulated in vitro; format: cell-based, mouse; details: α-CGRP stimulation alone
Protocol: ILC2 culture. Sort-purified intestinal KLRG1^+ ILC2s were incubated in RPMI supplemented with 10% FCS, 10 mM Hepes, 1 mM sodium pyruvate, 10% FBS, 80 μm 2-mercaptoethanol, 2 mM glutamine, 100 U/ml penicillin, […] streptomycin, 100 ng/ml IL-2 and 100 ng/ml IL-7 in 96-well round bottom plate at 37° C. and 5% CO2. If indicated, the culture was supplemented with 100 ng/ml IL-25. For the in vitro proliferation assay, cells from different mice were pooled and labeled with CellTrace Violet, and then cultured at 1,000-1,500 cells per well with 10 μg/ml α-CGRP for 60 hours. When indicated, 10 μM forskolin or 1 μM SQ 22, 536 in DMSO was supplied and cells were cultured for 40 hours. […]
Bulk ATAC-seq. […] The library was amplified for 11 cycles, purified with Zymo DNA clean (Zymo Research), and sequenced on an Illumina Next-seq platform using 75 cycle Nextseq 500 high output V2 kit (Read 1: 38 cycles, Index 1: 8 cycles, Index 2: 8 cycles, Read 2: 38 cycles).
The reads were trimmed and aligned to the mouse reference genome (mm9) with Bowtie2 aligner (Langmead and Salzberg, 2012) using the option-X2000. Then, Applicants discarded reads with alignment quality<Q30, improperly paired, mapped to the unmapped contigs, chrY, and mitochondria. […] Peak summits were extended by ±250 bp, and fragment counts in peaks were calculated using chromVAR (Schep et al., 2017) (version: 1.1.1). […]

intestinal KLRG1+ ILC2s [2] = assay: Bulk RNA-seq of intestinal KLRG1+ ILC2s stimulated in vitro; format: cell-based, mouse
Excerpt: To determine if α-CGRP can directly trigger signaling in ILC2s and impact their transcriptional states under inflammatory conditions, Applicants performed bulk RNA-seq of KLRG1^+ ILC2s isolated from the small intestine and stimulated in vitro with IL-25 alone or together with α-CGRP. […] Thus, α-CGRP inhibits IL-25-induced proliferation and activation of intestinal KLRG1+ILC2s.
The presence at homeostasis of α-CGRP receptors on ILC2s and α-CGRP's expression on ChAT^+ intestinal neurons led Applicants to hypothesize that it has an effect on ILC2s during homeostasis. To test this hypothesis, Applicants next measured the expression profiles of intestinal KLRG1^+ ILC2s stimulated in vitro by α-CGRP alone, and identified genes differentially expressed under this signal (FIG. 6D, Methods).
ILC2 culture. Sort-purified intestinal KLRG1^+ ILC2s were incubated in RPMI supplemented with 10% FCS, 10 mM Hepes, 1 mM sodium pyruvate, 10% FBS, 80 μm 2-mercaptoethanol, 2 mM glutamine, 100 U/ml penicillin, […] streptomycin, 100 ng/ml IL-2 and 100 ng/ml IL-7 in 96-well round bottom plate at 37° C. and 5% CO2. If indicated, the culture was supplemented with 100 ng/ml IL-25. For the in vitro proliferation assay, cells from different mice were pooled and labeled with CellTrace Violet, and then cultured at 1,000-1,500 cells per well with 10 μg/ml α-CGRP for 60 hours. When indicated, 10 μM forskolin or 1 μM SQ 22, 536 in DMSO was supplied and cells were cultured for 40 hours. For bulk RNA-seq, cells from individual mice were stimulated at 200 cells per well with 0.4 μg/ml α-CGRP for 3 hours. For bulk ATAC-seq, cells were stimulated with 0.4 μg/ml α-CGRP for 2 hours.
Bulk RNA-seq. 200 ILC2s from each condition were lysed in 10 ul TCL buffer plus 0.5% 2-Mercaptoethanol. Libraries were processed with SMART-Seq2 (Picelli et al., 2013) with at least three replicates per condition, and paired-end sequenced (75 bp×2) with a […] Nextseq 500 high output V2 kit.
Reads were aligned to the mouse reference genome (NCBI 38, mm10) using Bowtie (Langmead et al., 2009) with default parameters, and expression abundances were estimated using RSEM software (Li and Dewey, 2011). The differential gene expression analysis was performed with edgeR (Robinson et al., 2010) with default parameters.

lung ILC2s = details: co-stimulated with IL-33; cited from earlier work

With “α-CGRP: neuropeptide alpha-calcitonin gene-related peptide, encoded by exon 5 of Calca; administered as peptide” the “regions of increased chromatin accessibility” value (intestinal KLRG1+ ILC2s [1]) was “enriched for gene loci involved in the adenylate cyclase pathway”, the Il5 expression (intestinal KLRG1+ ILC2s [2]; IL-25 together with α-CGRP in vitro) was “further induced” and the IL-25-induced activation signature (intestinal KLRG1+ ILC2s [2]; IL-25 together with α-CGRP in vitro, adjusted P<0.001, t-test) was “significantly suppressed”. For the same substance, the “expression of adenylate cyclase-mediated GPCR signaling genes (Adrb2, Adora2a, Pde4b, Akap12) and cAMP response genes (Areg, Crem, Il5)” value (intestinal KLRG1+ ILC2s [2]; α-CGRP alone in vitro) was “induced expression”, the “expression of cell cycle arrest genes (Cdkn1a, Gadd45a, Akap12) and negative regulators of ILC2 expansion (Adrb2, Pdcd1)” value (intestinal KLRG1+ ILC2s [2]; α-CGRP alone in vitro) was “induced expression” and the “IL-5 expression in lung ILC2s” value (lung ILC2s) was “increases”.
